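Tested at 5 concentrations; 48 h exposure; 96-well plates; endpoints linearly interpolated, else capped at highest concentration. GI50: concentration for 50% inhibition of growth. TGI: concentration producing complete growth inhibition.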
Experiments:
Assay in all cases: growth of human tumour cells (NCI), 48 h
CCRF-CEM leukemia = test system: CCRF-CEM leukemia
EKVX NSCLC = test system: EKVX NSCLC
IGROV1 ovarian = test system: IGROV1 ovarian
HCT-116 colon = test system: HCT-116 colon
NCI-H522 lung = test system: NCI-H522 lung
SF-295 CNS = test system: SF-295 CNS
RPMI-8226 leukemia = test system: RPMI-8226 leukemia
OVCAR-8 ovarian = test system: OVCAR-8 ovarian
SNB-75 CNS = test system: SNB-75 CNS
SK-MEL-2 melanoma = test system: SK-MEL-2 melanoma

| SMILES | GI50 (CCRF-CEM leukemia) [µM] | TGI (CCRF-CEM leukemia) [µM] | GI50 (EKVX NSCLC) [µM] | TGI (EKVX NSCLC) [µM] | GI50 (IGROV1 ovarian) [µM] | TGI (IGROV1 ovarian) [µM] | GI50 (HCT-116 colon) [µM] | TGI (HCT-116 colon) [µM] | GI50 (NCI-H522 lung) [µM] | TGI (NCI-H522 lung) [µM] | GI50 (SF-295 CNS) [µM] | TGI (SF-295 CNS) [µM] | GI50 (RPMI-8226 leukemia) [µM] | TGI (RPMI-8226 leukemia) [µM] | GI50 (OVCAR-8 ovarian) [µM] | TGI (OVCAR-8 ovarian) [µM] | GI50 (SNB-75 CNS) [µM] | TGI (SNB-75 CNS) [µM] | GI50 (SK-MEL-2 melanoma) [µM] | TGI (SK-MEL-2 melanoma) [µM] |
| --- | --- | --- | --- | --- | --- | --- | --- | --- | --- | --- | --- | --- | --- | --- | --- | --- | --- | --- | --- | --- |
| NC(=O)c1ccc(I)c([N+](=O)[O-])c1 | > 63.7 | > 100 | 27.1 | > 65 | > 100 | > 100 | > 100 | > 100 | 6.06 | 14.6 | > 92.7 | > 100 | 50.1 | > 100 | > 100 | > 100 | > 100 | > 100 | > 100 | > 100 |
| Oc1cccc2ccc(SSc3ccc4cccc(O)c4n3)nc12 |  | > 100 |  | > 100 |  | 60.8 |  | 41.1 |  | 38.2 |  | 33.7 |  | > 100 |  | 36.3 |  | 34.9 |  | 39.9 |
| COc1cc(/C=C/C(=O)c2ccccc2O)ccc1OCCCOc1cc2c(cc1OC)C(=O)N1CCC[C@H]1C=N2 | 0.027 | 0.094 | 0.215 | 0.955 | 0.0255 | 0.163 | 0.0332 | 1.57 | 0.0662 | 0.453 | 0.0281 | 0.0895 | 0.0282 | 0.0758 | 0.0759 | 13.5 | 0.0468 | 0.222 | 0.0999 | 0.392 |
| COC(=O)[C@@H](C)C[C@H](Cc1ccc(F)cc1)NC(=O)c1csc([C@@H](C[C@H](C(C)C)N(C)C(=O)[C@@H](NC(=O)[C@H]2CCCCN2C)C2CC2)OC(C)=O)n1 | 0.153 | > 25 | 0.88 | > 25 | 0.34 | > 25 | 0.116 | > 9.49 | 0.0577 | 0.213 | 0.585 | > 25 | 0.104 | > 25 | 0.537 | > 25 | 0.174 | > 25 | 0.169 | > 25 |
| O=C1NN(C(=O)c2ccccc2)C(c2ccc(Cl)c(Cl)c2)=C/C1=C\c1ccccc1[N+](=O)[O-] | 1.91 | > 6.75 | 2.81 | > 6.75 | 1.59 | > 6.75 | 2.03 | > 6.75 | 1.24 | 3.77 | 1.44 | 4.16 | 1.77 | > 6.75 | 2.63 | > 6.75 | 1.27 | > 6.75 | 3.11 | > 6.75 |
| CCCCNC(=O)Oc1ccc(/C(=C(\C)c2ccc(OC)cc2)c2ccc(OCCN3CCCCC3)cc2)cc1 | 2.81 | 9.78 | 5.18 | 22.9 | 2.6 | 6.46 | 1.15 | 2.38 | 3.42 | 11.4 | 2.27 | 5.47 | 2.14 | 5.13 | 3.4 | 11.1 | 6.91 | 25 | 4.65 | 17.4 |
| C[N+]1(CCNP(=S)(NCC[N+]2(C)Cc3c(ccc4c3OCO4)C3C2c2cc4c(cc2C[C@@H]3O)OCO4)NCC[N+]2(C)Cc3c(ccc4c3OCO4)C3C2c2cc4c(cc2C[C@@H]3O)OCO4)Cc2c(ccc3c2OCO3)C2C1c1cc3c(cc1C[C@H]2O)OCO3 (stereo not given in full) |  | > 383 | 45.9 |  | 4.9 |  | 1.43 |  | 2.55 |  | 1.43 |  |  | < 0.00191 |  | < 0.00191 | 1.18 |  |  | < 0.00191 |
| CCC(CO)Nc1nc(NCc2ccccc2)c2n[nH]c(C(C)C)c2n1 (stereo not given) | 6.55 | 52.6 | 12.1 | 27.4 | 3.44 | 25.6 | 4.03 | 14.5 | 14.5 | 34.1 | 16.1 | 32.7 | 5.95 | 29 | 8.98 | 31.1 | 11.4 | 25.4 | 5.15 | 21.4 |
| C/C(=N\N)C(CN1CCOCC1)C(c1ccccc1)c1c(O)c2ccccc2oc1=O (stereo not given) |  | > 100 |  | > 100 |  | > 100 |  | > 100 |  | > 100 |  | > 100 |  | > 100 |  | > 100 |  | > 100 |  | > 100 |
| C/C(COc1ccc2oc(-c3ccccc3)cc(=O)c2c1)=N\O | 41.4 | > 100 | 2.89 | 26.6 | 43.8 | > 100 | 25.3 | > 100 | > 100 | > 100 | 12.8 | 33.6 | 22.3 | 62.3 | > 100 | > 100 | > 100 | > 100 | > 100 | > 100 |

Reference: PubChem BioAssay (NCI)
